Assay results taken from ChEMBL document CHEMBL1795324, “New class of acetylcholinesterase inhibitors from the stem bark of Knema laurina and their structural insights” (Bioorg Med Chem Lett, 2011).

Target: Acetylcholinesterase (Electrophorus electricus, UniProt O42275)
Sequence (O42275 whole entry): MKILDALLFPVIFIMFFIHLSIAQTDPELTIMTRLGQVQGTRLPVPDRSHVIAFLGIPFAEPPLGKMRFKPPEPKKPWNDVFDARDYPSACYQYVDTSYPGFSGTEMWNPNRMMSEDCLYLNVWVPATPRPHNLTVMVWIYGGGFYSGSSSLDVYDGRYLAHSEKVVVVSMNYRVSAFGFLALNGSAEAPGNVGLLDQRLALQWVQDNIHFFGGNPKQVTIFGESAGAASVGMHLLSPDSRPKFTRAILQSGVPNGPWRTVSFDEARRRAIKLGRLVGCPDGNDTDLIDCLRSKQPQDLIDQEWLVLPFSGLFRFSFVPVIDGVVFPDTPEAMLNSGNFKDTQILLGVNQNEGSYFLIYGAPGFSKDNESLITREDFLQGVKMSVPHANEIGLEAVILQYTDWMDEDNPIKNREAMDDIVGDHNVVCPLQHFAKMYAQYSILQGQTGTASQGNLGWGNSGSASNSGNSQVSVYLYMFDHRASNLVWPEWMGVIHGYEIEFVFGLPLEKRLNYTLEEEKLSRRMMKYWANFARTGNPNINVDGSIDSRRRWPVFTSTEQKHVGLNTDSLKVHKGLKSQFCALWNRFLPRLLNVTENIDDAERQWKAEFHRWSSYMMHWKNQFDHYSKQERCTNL
Description: Inhibition of electric eel acetylcholinesterase using acetylthiocholine iodide as substrate after 10 mins by Ellman's spectrophotometric method

Structure (SMILES)	IC50
CCCCC[C@H](O)/C=C/CCCCCCCc1cccc(O)c1C(=O)O	3.18 µM
CCCCC[C@H](O)/C=C/CCCCCCCc1cccc(OC)c1C(=O)OC	342 µM
CCCC/C=C\CCCCCCCCCc1cccc(O)c1	17.2 µM
CCCC/C=C\CCCCCCCCCc1cccc(OC)c1	178 µM
CCCC/C=C\CCCCCCCCCc1cccc(OC)c1C(=O)OC	358 µM
CCCCCC/C=C\CCCCCCCCCc1cccc(OC)c1C(=O)OC	303 µM
CCCCCC/C=C\CCCCCCCCCc1cccc(O)c1	13.1 µM
